We go through 54 compounds from patent publication US10774051B2, “6-membered heterocyclic derivatives and pharmaceutical composition comprising the same” (Shionogi & Co., Ltd., priority 2015, dated 2020).

Structures are written as SMILES. Some results are limits rather than exact numbers.

In one assay the target is human P2X7 receptor (Homo sapiens, UniProt Q99572, R270H/Y155H). The assay is described as follows: Evaluation of human P2X7 receptor inhibitory activity (Yo-Pro uptake, BzATP stimulation, FLIPR TETRA). As to conditions: 1321N1 cells stably expressing human P2X7 receptor; BzATP stimulation, Yo-Pro uptake; read-out: IC50 (antagonistic activity for the human P2X7 receptor). The format is cell-based. The essentials:
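Yo-Pro dye uptake triggered by BzATP was monitored by FLIPR in human P2X7-transfected 1321N1 cells (SNP variant) in HEPES-buffered HBSS, pH 7.4-7.5. Compound was dispensed 8 min post-stimulation, then signal read for 20 min; IC50 derived logistically from inhibition of the fluorescence range.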
As for `COc1cn(Cc2cc(F)cc(F)c2)c(Nc2cc3c(cc2C)OCC3)nc1=O` [Compound I-0865], the half-maximal inhibitory concentration (IC50) was found to be 8 nM.
For the compound `COc1cn(Cc2ccc(F)c(Cl)c2)c(Nc2cc3c(cc2C)OCO3)nc1=O` [Compound I-0742], the IC50 stood at 16 nM.
On to `Cc1ccc(-c2ncco2)cc1Nc1nc(=O)c(F)cn1Cc1ccc(F)c(Cl)c1` [Compound I-0849], for which the IC50 amounted to 3 nM.
Still for that read-out and setting: with `COc1cn(Cc2ccccc2)c(NCc2cccc(Cl)c2C)nc1=O` [Compound I-0121] the figure was 280 nM; with `Cc1nc2cc(C)c(Nc3nc(=O)c(Cl)cn3Cc3ccccc3)cc2s1` [Compound I-0786], 25 nM.
Consider `Cc1c(Cl)cccc1Nc1nc(=O)c(N)cn1Cc1ccccc1` [Compound I-0022], for which the IC50 was determined as 17 nM.

The same assay, now with this note: 1321N1 cells stably expressing human P2X7 receptor; BzATP stimulation, Yo-Pro uptake; read-out: IC50 (antagonistic activity for the human P2X7 receptor), class symbol.
With `COc1cn(Cc2cc(C)cc(F)c2)c(Nc2cccc(Cl)c2C)nc1=O` [Compound I-0450], the IC50 lay in the range of 10 to 100 nM.
With `COc1cn(Cc2ccccc2)c(Nc2cccc3occc23)nc1=O` [Compound I-0103], the IC50 lay in the range of 100 to 500 nM.
Turning to `Cc1c(Cl)cccc1Nc1nc(=O)c(C(=O)NCC#N)cn1Cc1ccccc1` [Compound I-0075], the IC50 is 100 to 500 nM.
Consider `COc1cn(Cc2ccccc2)c(Nc2cccc3c2CCNC3)nc1=O` [Compound I-0050], for which the IC50 is 500 to 1000 nM.
For `COc1cn(Cc2cc(F)cc(Cl)c2)c(Nc2cc3[nH]ncc3cc2C)nc1=O` [Compound I-0580], the IC50 is 10 to 100 nM.
In the case of `COc1cc(C)c(Nc2nc(=O)c(OC)cn2Cc2cc(F)cc(F)c2)cc1OC` [Compound I-0439], the IC50 was under 10 nM.
Consider `COc1cn(Cc2ccc(F)c(F)c2)c(Nc2cc(C)c(Cl)cc2C)nc1=O` [Compound I-0279], for which the IC50 is under 10 nM.
`COc1c(C)ccc(Nc2nc(=O)c(OC)cn2Cc2ccc(F)c(F)c2)c1C` [Compound I-0517]: the IC50 is under 10 nM.
Same read-out and setting: in the case of `COc1cn(Cc2cc(F)cc(Cl)c2)c(Nc2cccc(Cl)c2C)nc1=O` [Compound I-0285] it was 10 to 100 nM.
For `CCc1ccc(OC)cc1Nc1nc(=O)c(OC)cn1Cc1ccc(F)cc1` [Compound I-0253], the IC50 is 10 to 100 nM.
`COc1cn(Cc2ccccc2)c(Nc2cc(C)ccc2C)nc1=O` [Compound I-0068]: the IC50 lay in the range of 10 to 100 nM.
In the case of `COc1cn(Cc2ccccc2)c(Nc2cccc(SC)c2C)nc1=O` [Compound I-0429], the IC50 was under 10 nM.
Turning to `COCCNC(=O)Cc1cn(Cc2ccccc2)c(Nc2cccc(Cl)c2C)nc1=O` [Compound I-0340], the half-maximal inhibitory concentration (IC50) is 100 to 500 nM.
`COc1cn(Cc2ccccc2)c(Nc2ccc(Cl)cc2Cl)nc1=O` [Compound I-0071]: the IC50 lay in the range of 100 to 500 nM.
For the compound `COc1ccc(C)c(Nc2nc(=O)c(OC)cn2Cc2cc(F)cc(Cl)c2)c1` [Compound I-0409], the IC50 fell in the range of 10 to 100 nM.
Take `COc1cn(Cc2ccccc2COC(F)F)c(Nc2cccc(Cl)c2C)nc1=O` [Compound I-0475]: the IC50 is under 10 nM.
`CCc1cc(OC)c(OC)cc1Nc1nc(=O)c(Cl)cn1Cc1ccccc1` [Compound I-0351]: the IC50 is under 10 nM.
Still for that read-out and setting: in the case of `COc1cn(Cc2ccccc2COC(F)F)c(Nc2cccc(Cl)c2C)nc1=O` [Compound I-0422] it was 500 to 1000 nM.
As to `COc1cn(Cc2cc(F)ccc2F)c(Nc2cccc(Cl)c2C)nc1=O` [Compound I-0328], the IC50 was in the range of 10 to 100 nM.
As for `COc1cn(Cc2cc(F)cc(F)c2)c(Nc2ccc(Cl)cc2C)nc1=O` [Compound I-0563], the concentration for half-maximal inhibition (IC50) lay within 10 to 100 nM.
Still for that read-out and setting: in the case of `COc1cn(Cc2cc(F)cc(F)c2)c(Nc2ccc(N3CCOCC3)cc2C)nc1=O` [Compound I-0543] it was 10 to 100 nM.
Turning to `COc1cn(Cc2ccccc2)c(Nc2cc(C(C)C)ccc2C)nc1=O` [Compound I-0143], the IC50 was in the range of 10 to 100 nM.
As for `Cc1c(Cl)cccc1Nc1nc(=O)c(CC(=O)O)cn1Cc1ccccc1` [Compound I-0025], the IC50 was 500 to 1000 nM.

Still in this assay, the particulars now being: antagonistic activity for the human P2X7 receptor; read-out: IC50.
For `COc1cn(Cc2ccc(F)c(Cl)c2)c(Nc2cc(-c3cccn(C)c3=O)ccc2C)nc1=O` [Compound I-0588], the IC50 is under 10 nM.
For the compound `COc1ccc(C)c(Nc2cc(=O)c(OC)cn2Cc2ccccc2)c1` [Compound I-0952], the concentration for half-maximal inhibition (IC50) was 100 to 500 nM.
Turning to `COc1cn(Cc2cc(F)cc(Cl)c2)c(Nc2cc(C(C)(C)O)ccc2C)nc1=O` [Compound I-0776], the IC50 fell in the range of 10 to 100 nM.
The same measure, in the same setting: in the case of `Cc1cc(OC(F)(F)F)ccc1Nc1nc(=O)c(F)cn1Cc1cc(F)c(F)c(F)c1` [Compound I-1103] it was 10 to 100 nM; in that of `COc1cc(Nc2nc(=O)c(OC)cn2Cc2cc(F)cc(Cl)c2)c(C)cc1F` [Compound I-0780], 10 to 100 nM.
Regarding `Cc1nc2cc(C)c(Nc3nc(=O)c(F)cn3Cc3cc(F)c(F)c(F)c3)cc2s1` [Compound I-0937], the IC50 was under 10 nM.
As to `O=c1nc(Nc2cccc3[nH]ccc23)n(Cc2ccc(F)c(Cl)c2)cc1F` [Compound I-1024], the IC50 was under 10 nM.
Take `COc1cn(Cc2ccc(F)c(Cl)c2)c(Nc2cc(C)c(OC(F)(F)F)cc2C)nc1=O` [Compound I-0923]: the IC50 is 10 to 100 nM.
With `COc1ccc(Nc2nc(=O)c(F)cn2Cc2cc(F)c(F)c(F)c2)c(OC)c1C` [Compound I-1243], the IC50 is under 10 nM.
Regarding `Cc1ccc(N2CC3CCC2C3)cc1Nc1nc(=O)c(F)cn1Cc1cc(F)c(F)c(F)c1` (stereo not drawn) [Compound I-1053], the IC50 is 10 to 100 nM.
Take `CCc1cc(F)c(OC)cc1Nc1nc(=O)c(OC)cn1Cc1ccccc1` [Compound I-0813]: the IC50 is under 10 nM.
On the same count and under the same terms, with `COc1cc(Nc2nc(=O)c(OC)cn2Cc2ccc(F)c(Cl)c2)c(C)cc1C` [Compound I-0586] the figure was under 10 nM.
Turning to `Cc1nc2cc(C)c(Nc3nc(=O)c(F)cn3Cc3ccc(F)cc3)cc2s1` [Compound I-1011], the IC50 is under 10 nM.
For the compound `CCOc1ccc(C)c(Nc2nc(=O)c(F)cn2Cc2ccc(F)c(Cl)c2)c1` [Compound I-0998], the IC50 was under 10 nM.
Consider `CCc1cc(OC)ccc1Nc1nc(=O)c(F)cn1Cc1cc(F)c(F)c(F)c1` [Compound I-1197], for which the IC50 was under 10 nM.
Regarding `COc1cc(C)c(Nc2nc(=O)c(F)cn2Cc2cc(F)c(F)c(F)c2)cc1C(C)C` [Compound I-1070], the IC50 lay in the range of 10 to 100 nM.
For the compound `CCc1cc(F)c(OC)cc1Nc1nc(=O)c(F)cn1Cc1cc(F)c(F)c(F)c1` [Compound I-1211], the IC50 is under 10 nM.
As for `COc1cn(Cc2ccccc2)c(Nc2cc(-c3cccn(C)c3=O)ccc2C)nc1=O` [Compound I-0587], the IC50 fell in the range of 10 to 100 nM.
For `CCOc1cn(Cc2ccc(F)c(Cl)c2)c(Nc2cc(OC)c(OC)cc2C)nc1=O` [Compound I-0795], the 50% inhibitory concentration (IC50) is under 10 nM.
For the compound `COc1cn(Cc2ccccc2)c(Nc2ccc(OC(F)(F)F)cc2C)nc1=O` [Compound I-0628], the IC50 fell in the range of 100 to 500 nM.
In the case of `COc1ccc(Nc2nc(=O)c(OC)cn2Cc2ccc(F)cc2)c(C)c1` [Compound I-0739], the half-inhibitory concentration (IC50) lay in the range of 10 to 100 nM.
Take `COCc1cn(Cc2cc(F)c(F)c(F)c2)c(Nc2cc(OC)c(OC)cc2C)nc1=O` [Compound I-1144]: the IC50 is 10 to 100 nM.
With `Cc1c(F)cccc1Nc1nc(=O)c(F)cn1Cc1cc(F)c(F)c(F)c1` [Compound I-1181], the IC50 is under 10 nM.
Regarding `Cc1nc2cc(Cl)c(Nc3nc(=O)c(F)cn3Cc3cc(F)c(F)c(F)c3)cc2o1` [Compound I-1078], the IC50 was under 10 nM.
Turning to `CCOc1ccc(Nc2nc(=O)c(OC)cn2Cc2ccccc2)c(C)c1` [Compound I-0676], the IC50 fell in the range of 100 to 500 nM.

The IC50 is the midpoint of a concentration-inhibition curve.
